Assay results published in patent US11773071B2, “Benzothiazepine compounds and their use as bile acid modulators” (Albireo AB, priority 2019, dated 2023).

Experiments:
Human LBAT = biological target: T1, Human LBAT (Homo sapiens, UniProt Q14973); experiment: LBAT (h/m) assay, human LBAT-overexpressing cells, 3H-taurocholic acid uptake; format: cell-based; settings: 0.3 μM 3H-taurocholic acid and 7.5 μM cold taurocholic acid, 20 minutes, read-out: hLBAT IC50
T1 construct: expressed in transfected cells; Geneticin-selected
T1 sequence (Q14973 1-349): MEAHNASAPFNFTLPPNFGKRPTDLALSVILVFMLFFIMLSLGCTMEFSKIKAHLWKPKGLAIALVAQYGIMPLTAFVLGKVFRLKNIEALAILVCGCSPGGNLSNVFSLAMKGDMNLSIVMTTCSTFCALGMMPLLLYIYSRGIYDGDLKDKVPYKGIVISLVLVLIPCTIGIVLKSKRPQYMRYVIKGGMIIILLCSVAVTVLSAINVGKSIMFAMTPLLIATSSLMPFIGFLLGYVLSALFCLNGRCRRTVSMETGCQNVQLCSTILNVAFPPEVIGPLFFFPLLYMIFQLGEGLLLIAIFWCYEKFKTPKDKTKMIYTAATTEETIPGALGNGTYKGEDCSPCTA
Experimental: LBAT (h/m) Assay Protocol
20,000 cells (Human or Mouse LBAT-overexpressing cells) were seeded in 96-wells plate (Corning CLS3809) in 100 μL MEM-alpha medium (Gibco 12571-063) supplemented with 10% FBS (Gibco 10438026) containing Geneticin (Gibco 10131-027) (1 mg/mL) and incubated at 37° C. in 5% CO2 for 24 hours. After incubation, media was decanted from the wells and cells were washed two times with 300 μL of basal MEM-alpha medium (FBS-free). After decanting basal MEM-alpha medium each time, plates were tapped against paper towel to ensure maximum removal of residual media.
For human LBAT, incubation mix was prepared by adding test inhibitor dilutions (3-fold serial dilution in DMSO (Sigma D2650), 10 points) in MEM-alpha (without FBS) containing 0.3 μM 3H-taurocholic acid (ARC ART-1368) and 7.5 μM cold taurocholic acid (Sigma T4009) (maintaining 0.2% final DMSO concentration). For mouse LBAT, incubation mix was prepared by adding test inhibitor dilutions (3-fold serial dilution in DMSO, 10 points) in MEM-alpha (without FBS) containing 0.3 μM 3H-taurocholic acid and 25 μM cold taurocholic acid maintaining 0.2% final DMSO concentration). 50 μL of incubation mix containing test inhibitors was then added to the wells (in duplicate) and the plates were incubated for 20 minutes in a CO2 incubator at 37° C. After incubation, the reaction was stopped by keeping the plates on ice water mix for 2-3 minutes and then the incubation mix was aspirated completely from the wells. The wells were washed two times with 250 μL of chilled unlabelled 1 mM taurocholic acid dissolved in HEPES (Gibco 15630080)-buffered (10 mM) HBSS (Gibco 14175079) (pH 7.4). The plates were tapped against a paper towel after every wash to ensure maximum removal of blocking buffer. 100 μL of MicroScint-20 (PerkinElmer 6013621) was added to the wells and kept overnight at room temperature before reading the plates in TopCount NXT™ Microplate Scintillation and Luminescence Counter from PerkinElmer under 3H Test protocol (set at 120 seconds reading time per well, with normal plate orientation).
(§1) Preparation of Test Compound Dilutions
(§2) All test compounds were provided in powder form at room temperature. 10 mM DMSO stocks of the test compounds were prepared, aliquoted and stored at −20° C. From the 10 mM DMSO stock of the compounds, a 3-fold serial dilution in DMSO was prepared to get a total of 10 dilutions of the test compounds. 0.5 μL of this dilution in DMSO was added to 250 μL of FBS-free basal media containing 3H-taurocholic acid and cold taurocholic acid to prepare the incubation mixture.

Human IBAT = biological target: T2, Human IBAT (Homo sapiens, UniProt Q12908); experiment: IBAT (h/m) assay, human IBAT-overexpressing cells, 3H-taurocholic acid uptake; format: cell-based; settings: 0.25 μM 3H-taurocholic acid and 5 μM cold taurocholic acid, 20 minutes, read-out: hIBAT IC50
T2 construct: expressed in transfected cells; Puromycin-selected
T2 sequence (Q12908 1-348): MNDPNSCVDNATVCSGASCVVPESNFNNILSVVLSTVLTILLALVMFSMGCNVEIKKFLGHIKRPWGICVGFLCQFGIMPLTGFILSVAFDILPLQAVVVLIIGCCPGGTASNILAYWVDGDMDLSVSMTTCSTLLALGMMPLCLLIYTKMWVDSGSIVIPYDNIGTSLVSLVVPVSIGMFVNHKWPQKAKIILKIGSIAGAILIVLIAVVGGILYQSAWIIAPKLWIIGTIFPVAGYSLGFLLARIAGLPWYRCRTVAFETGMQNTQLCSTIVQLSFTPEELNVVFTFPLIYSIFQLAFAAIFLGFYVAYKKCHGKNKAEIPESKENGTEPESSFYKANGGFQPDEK
Experimental: IBAT (h/m) Assay Protocol
10,000 cells (Human or Mouse IBAT-overexpressing cells) were seeded in 96-wells plate (Corning CLS3809) in 200 μL MEM-alpha medium (Gibco 12571-063) supplemented with 10% FBS (Gibco 10438026) containing Puromycin (Gibco A1113803) (10 μg/mL) and incubated at 37° C. in 5% CO2 for 48 hours. After incubation, media was decanted from the wells and cells were washed two times with 300 μL of basal MEM-alpha medium (FBS-free). After decanting basal MEM-alpha medium each time, plates were tapped against paper towel to ensure maximum removal of residual media. Test inhibitor dilutions (highest test concentration being 10 μM, 3-fold serial dilution, 10 points) prepared in DMSO (Sigma D2650) were added in incubation mix (maintaining 0.2% final DMSO concentration) containing 0.25 μM 3H-taurocholic acid (ARC ART-1368) and 5 μM of cold taurocholic acid (Sigma T4009). 50 μL of incubation mix containing test inhibitors was then added to the wells (in duplicate) and the plates were incubated for 20 minutes in a CO2 incubator at 37° C. After incubation, the reaction was stopped by keeping the plates on ice water mix for 2-3 minutes and then the incubation mix was aspirated completely from the wells. The wells were washed two times with 250 μL of chilled unlabelled 1 mM taurocholic acid dissolved in HEPES (Gibco 15630080)-buffered (10 mM) HBSS (Gibco 14175079) (pH 7.4). The plates were tapped against a paper towel after every wash to ensure maximum removal of blocking buffer.
100 μL of MicroScint-20 (PerkinElmer 6013621) was added to the wells and kept overnight at room temperature before reading the plates in TopCount NXT™ Microplate Scintillation and Luminescence Counter from PerkinElmer under 3H Test protocol (set at 120 seconds reading time per well).
as §1, §2

IC50 (Human LBAT) | IC50 (Human IBAT) | Compound
2310 nM | 36 nM | CCCCC1(CC)CN(c2ccc(F)cc2)c2cc(SC)c(OCC(O)C(=O)O)cc2S(=O)(=O)C1 (single isomer, unassigned) [42, diastereomer 2]
818 nM | 263 nM | CCCCC1(CC)CN(c2ccccc2)c2cc(Cl)c(OC(C)CC(=O)O)cc2S(=O)(=O)C1 (single isomer, unassigned) [30, diastereomers 3 and 4]
389 nM | 10 nM | CCCCC1(CC)CN(c2ccccc2)c2cc(SC)c(OCC(O)C(=O)O)cc2S(=O)(=O)C1 (single isomer, unassigned) [40, diastereomer 4]
1370 nM | 241 nM | CCCCC1(CC)CN(c2ccccc2)c2cc(SC)c(OCC(O)C(=O)O)cc2S(=O)(=O)C1 (single isomer, unassigned) [40, diastereomer 1]
– | 5 nM | CCCCC1(CC)CN(c2ccccc2)c2cc(SC)c(OCC(N)C(=O)O)cc2S(=O)(=O)C1 (single isomer, unassigned) [36, diastereomer 2]
665 nM | 2 nM | CCCCC1(CC)CN(c2ccccc2)c2cc(SC)c(OCC(O)C(=O)O)cc2S(=O)(=O)C1 (single isomer, unassigned) [40, diastereomer 3]
575 nM | – | CCCCC1(C)CN(c2ccccc2)c2cc(SC)c(OCC(C)(O)C(=O)O)cc2S(=O)(=O)C1 (single isomer, unassigned) [33, diastereomer 4]
613 nM | 4 nM | CCCCC1(CC)CN(c2ccccc2)c2cc(SC)c(OCC(O)C(=O)O)cc2S(=O)(=O)C1 (centres unmarked) [Example 39, 3-((3-butyl-3-ethyl-7-(methylthio)-1,1-dioxido-5-phenyl-2,3,4,5-tetrahydro-1,5-benzothiazepin-8-yl)oxy)-2-hydroxypropanoic acid]
1190 nM | 56 nM | CCCCC1(CC)CN(c2ccccc2)c2cc(SC)c(OCC(C)(O)C(=O)O)cc2S(=O)(=O)C1 (single isomer, unassigned) [48, diastereomer 1]
1290 nM | 19 nM | CCCCC1(CC)CN(c2ccc(F)cc2)c2cc(SC)c(OCC(O)C(=O)O)cc2S(=O)(=O)C1 (single isomer, unassigned) [42, diastereomer 1]
601 nM | 39 nM | CCCCC1(CCCC)CN(c2ccccc2)c2cc(SC)c(OCC(C)(O)C(=O)O)cc2S(=O)(=O)C1 (racemic) [Example 19, 3-((3,3-Dibutyl-7-(methylthio)-1,1-dioxido-5-phenyl-2,3,4,5-tetrahydro-1,5-benzothiazepin-8-yl)oxy)-2-hydroxy-2-methylpropanoic acid]
138 nM | 13 nM | CCCCC1(CC)CN(c2ccccc2)c2cc(SC)c(OCC(C)(F)C(=O)O)cc2S(=O)(=O)C1 (single isomer, unassigned) [35, diastereomer 2]
> 23000 nM | 392 nM | CCCCC1(CC)CN(c2ccccc2)c2cc(OC)c(OCCC(=O)O)cc2S(=O)(=O)C1 (single isomer, unassigned) [44, enantiomer 2]
322 nM | 52 nM | CCCCC1(CC)CN(c2ccccc2)c2cc(Cl)c(OC(C)CC(=O)O)cc2S(=O)(=O)C1 (single isomer, unassigned) [30, diastereomer 2]
1480 nM | 26 nM | CCCCC1(CCCC)CN(c2ccccc2)c2cc(SC)c(OCC(OC)C(=O)O)cc2S(=O)(=O)C1 (racemic) [Example 46, 3-((3,3-Dibutyl-7-(methylthio)-1,1-dioxido-5-phenyl-2,3,4,5-tetrahydro-1,5-benzothiazepin-8-yl)oxy)-2-methoxypropanoic acid]
837 nM | 241 nM | CCCCC1(CC)CN(c2ccccc2)c2cc(Br)c(OCCC(=O)O)cc2S(=O)(=O)C1 (single isomer, unassigned) [Example 3, 3-((7-bromo-3-butyl-3-ethyl-1,1-dioxido-5-phenyl-2,3,4,5-tetrahydro-1,5-benzothiazepin-8-yl)oxy)propanoic acid]
4080 nM | 35 nM | CCCCC1(C)CN(c2ccccc2)c2cc(SC)c(OCC(O)C(=O)O)cc2S(=O)(=O)C1 (single isomer, unassigned) [32, diastereomer 2]
– | 76 nM | CCCCC1(CC)CN(c2ccccc2)c2cc(SC)c(OCC(N)C(=O)O)cc2S(=O)(=O)C1 (single isomer, unassigned) [36, diastereomer 1]
– | 62 nM | CCCC1(CC)CN(c2ccccc2)c2cc(SC)c(OCCC(=O)O)cc2S(=O)(=O)C1 (centres unmarked) [Example 27, 3-((3-ethyl-7-(methylthio)-1,1-dioxido-5-phenyl-3-propyl-2,3,4,5-tetrahydro-1,5-benzothiazepin-8-yl)oxy)propanoic acid]
– | 52 nM | CCCCC1(CC)CN(c2ccccc2)c2cc(N(C)C)c(OCCC(=O)O)cc2S(=O)(=O)C1 (single isomer, unassigned) [Example 18, 3-((3-butyl-7-(dimethylamino)-3-ethyl-1,1-dioxido-5-phenyl-2,3,4,5-tetrahydro-1,5-benzothiazepin-8-yl)oxy)propanoic acid]
– | 5 nM | CCCCC1(C)CN(c2ccc(F)cc2)c2cc(SC)c(OCC(O)C(=O)O)cc2S(=O)(=O)C1 (centres unmarked) [Example 51, 3-((3-Butyl-5-(4-fluorophenyl)-3-methyl-7-(methylthio)-1,1-dioxido-2,3,4,5-tetrahydro-1,5-benzothiazepin-8-yl)oxy)-2-hydroxypropanoic acid]
– | 10 nM | CCCCC1(C)CN(c2ccc(F)cc2)c2cc(SC)c(OCCC(=O)O)cc2S(=O)(=O)C1 (racemic) [Example 49, 3-((3-Butyl-5-(4-fluorophenyl)-3-methyl-7-(methylthio)-1,1-dioxido-2,3,4,5-tetrahydro-1,5-benzothiazepin-8-yl)oxy)propanoic acid]
– | 45 nM | CCCCC1(CC)CN(c2ccccc2)c2cc(SC)c(OCC(N)C(=O)O)cc2S(=O)(=O)C1 (centres unmarked) [Example 28, O-(3-butyl-3-ethyl-7-(methylthio)-1,1-dioxido-5-phenyl-2,3,4,5-tetrahydro-1,5-benzothiazepin-8-yl)serine]
